Measured values as given in patent publication US7081460B2, “Quinazoline and quinazoline-like compounds for the treatment of integrin-mediated disorders” (Ortho-McNeil Pharmaceutical, Inc., priority 2001, dated 2006).
pIC50: −log10 of the molar value.

What was measured:
Human αvβ3 = biological target: T1, Human αvβ3 (Homo sapiens, UniProt P05106+P06756); test: In vitro solid phase purified αvβ3 binding assay (vitronectin/αvβ3); details: isolated human αvβ3, 5 nM vitronectin; read-out: αvβ3 Binding IC50
T1 construct: purchased Chemicon International Inc., Temecula, Calif
T1 sequence (P06756 31-889 limits assumed): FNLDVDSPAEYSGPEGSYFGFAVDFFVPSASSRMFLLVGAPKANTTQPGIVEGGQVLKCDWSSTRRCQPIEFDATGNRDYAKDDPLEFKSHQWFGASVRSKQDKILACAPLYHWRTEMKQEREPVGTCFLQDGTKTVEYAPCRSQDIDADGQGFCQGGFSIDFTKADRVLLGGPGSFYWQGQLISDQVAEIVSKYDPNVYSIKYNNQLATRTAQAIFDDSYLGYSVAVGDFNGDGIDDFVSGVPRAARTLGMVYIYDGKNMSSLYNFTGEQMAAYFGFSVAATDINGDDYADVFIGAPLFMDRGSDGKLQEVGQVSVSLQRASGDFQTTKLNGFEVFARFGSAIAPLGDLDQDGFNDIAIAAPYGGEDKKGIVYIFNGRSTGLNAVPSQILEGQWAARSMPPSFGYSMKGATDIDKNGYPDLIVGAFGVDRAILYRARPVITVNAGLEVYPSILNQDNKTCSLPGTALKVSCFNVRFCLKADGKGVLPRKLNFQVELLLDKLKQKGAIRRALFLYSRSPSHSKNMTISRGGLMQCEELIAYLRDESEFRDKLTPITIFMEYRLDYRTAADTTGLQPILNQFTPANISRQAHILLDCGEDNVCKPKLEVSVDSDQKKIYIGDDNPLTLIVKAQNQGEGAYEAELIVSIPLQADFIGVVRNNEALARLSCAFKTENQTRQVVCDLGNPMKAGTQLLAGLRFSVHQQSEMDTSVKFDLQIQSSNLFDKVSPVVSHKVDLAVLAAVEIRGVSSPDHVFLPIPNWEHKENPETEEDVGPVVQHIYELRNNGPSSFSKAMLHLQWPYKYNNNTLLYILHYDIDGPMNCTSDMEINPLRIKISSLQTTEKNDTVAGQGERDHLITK
T1 sequence (P06756 891-1048 partner limits assumed): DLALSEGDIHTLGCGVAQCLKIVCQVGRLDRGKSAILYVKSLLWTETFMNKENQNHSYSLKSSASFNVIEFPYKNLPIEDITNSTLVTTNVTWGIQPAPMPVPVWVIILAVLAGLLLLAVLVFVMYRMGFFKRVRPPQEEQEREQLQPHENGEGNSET
T1 sequence (P05106 27-788): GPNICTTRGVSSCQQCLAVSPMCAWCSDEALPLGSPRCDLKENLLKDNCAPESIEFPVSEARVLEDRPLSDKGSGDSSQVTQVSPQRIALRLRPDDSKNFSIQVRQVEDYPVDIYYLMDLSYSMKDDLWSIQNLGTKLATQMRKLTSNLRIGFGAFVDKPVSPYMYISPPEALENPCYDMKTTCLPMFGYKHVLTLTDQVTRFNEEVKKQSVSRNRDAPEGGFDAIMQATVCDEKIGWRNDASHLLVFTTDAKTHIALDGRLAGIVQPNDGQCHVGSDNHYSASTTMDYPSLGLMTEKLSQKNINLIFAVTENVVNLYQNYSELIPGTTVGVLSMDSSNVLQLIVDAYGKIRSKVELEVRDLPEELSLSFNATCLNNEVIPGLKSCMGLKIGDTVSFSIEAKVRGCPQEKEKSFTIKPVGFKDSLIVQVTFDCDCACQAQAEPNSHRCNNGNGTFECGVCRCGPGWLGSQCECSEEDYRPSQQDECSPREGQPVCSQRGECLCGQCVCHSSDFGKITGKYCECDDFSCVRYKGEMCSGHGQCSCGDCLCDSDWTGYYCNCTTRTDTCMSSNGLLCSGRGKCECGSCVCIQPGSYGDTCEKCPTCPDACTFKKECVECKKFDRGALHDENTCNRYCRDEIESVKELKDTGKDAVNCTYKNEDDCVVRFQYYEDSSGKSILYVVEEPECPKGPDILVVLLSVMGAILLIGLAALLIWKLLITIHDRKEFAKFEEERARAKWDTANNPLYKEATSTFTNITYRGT
Procedure: (§1) In vitro Solid Phase Purified αvβ3 Binding Assay The vitronectin/αvβ3 binding assay methods were derived from Mehta et al. (Biochem J. 1998, 330, 861). Human αvβ3 (Chemicon International Inc., Temecula, Calif.), at a concentration of 1 μg/ml dissolved in Tris buffer (20 mM Tris, 1 mM CaCl2, 1 mM MgCl2, 10 μM MnCl2, 150 mM NaCl), was immobilized on Immulon 96 well plates (Dynex Technologies, Chantilly, Va.) overnight at 4° C. Plates were washed and treated with blocking buffer (3% BSA in Tris buffer) for 2 h at 37 C. Plates were then rinsed 2 times in Tris buffer containing 0.3% BSA and 0.2% Tween20 (polyoxyethylenesorbitan monolaurate). Five minutes prior to the addition of 5 nM vitronectin (Sigma, St. Louis, Mo.), compounds of the invention were added to wells in duplicate. Each plate included c-RGDfV as an internal control. Following a 3 hour incubation at 37° C., plates were washed 5 times in assay buffer. An anti-human vitronectin IgG rabbit polyclonal antibody (Calbiochem, San Diego, Calif.) was added (1:2000) and plates were incubated for 1 hour at room temperature. VectaStain ABC peroxidase kit reagents (Vector Laboratories, Burlingame, Calif.) employing a biotin labeled anti-rabbit IgG, were utilized for detection of bound antibody. Plates were read at 490 nm on a Molecular Devices (Sunnyvale, Calif.) microplate reader. […] The plate was covered and incubated overnight at 4° C. The GPIIb/IIIa solution was discarded and 150 μl of 5% BSA was added and incubated at RT for 1–3 h. The plate was washed extensively with modified Tyrodes buffer. Biotinylated fibrinogen (25 μl/well) at 2× final concentration was added to the wells that contain the test compounds (25 μl/well). The plate was covered and incubated at RT for 2–4 h. Twenty minutes prior to incubation completion, one drop of Reagent A (VectaStain ABC Horse Radish Peroxidase kit, Vector Laboratories, Inc.) and one drop Reagent B were added with mixing to 5 mL modified Tyrodes buffer mix and let stand. The ligand solution was discarded and the plate washed (5×200 μl/well) with modified Tyrodes buffer. Vecta Stain HRP-Biotin-Avidin reagent (50 μl/well, as prepared above) was added and incubated at RT for 15 min. The Vecta Stain solution was discarded and the wells washed (5×200 μl/well) with modified Tyrodes buffer. Developing buffer (10 mL of 50 mM citrate/phosphate buffer @ pH 5.3, 6 mg o-phenylenediamine, 6 μl 30% H2O2; 50 μl/well) was added and incubated at rt for 3–5 min, and then 2 N H2SO4 (50 μl/well) was added. The absorbance was read at 490 nm.

GPIIb/IIIa = GPIIb/IIIa (Homo sapiens, UniProt P05106+P08514); test: In vitro solid phase purified glycoprotein IIb/IIIa binding assay (biotinylated fibrinogen); details: RGD-affinity purified GPIIb/IIIa, biotinylated fibrinogen; read-out: GPIIb/IIIa Binding IC50
Sequence of GPIIb/IIIa (P08514 32-887 limits assumed): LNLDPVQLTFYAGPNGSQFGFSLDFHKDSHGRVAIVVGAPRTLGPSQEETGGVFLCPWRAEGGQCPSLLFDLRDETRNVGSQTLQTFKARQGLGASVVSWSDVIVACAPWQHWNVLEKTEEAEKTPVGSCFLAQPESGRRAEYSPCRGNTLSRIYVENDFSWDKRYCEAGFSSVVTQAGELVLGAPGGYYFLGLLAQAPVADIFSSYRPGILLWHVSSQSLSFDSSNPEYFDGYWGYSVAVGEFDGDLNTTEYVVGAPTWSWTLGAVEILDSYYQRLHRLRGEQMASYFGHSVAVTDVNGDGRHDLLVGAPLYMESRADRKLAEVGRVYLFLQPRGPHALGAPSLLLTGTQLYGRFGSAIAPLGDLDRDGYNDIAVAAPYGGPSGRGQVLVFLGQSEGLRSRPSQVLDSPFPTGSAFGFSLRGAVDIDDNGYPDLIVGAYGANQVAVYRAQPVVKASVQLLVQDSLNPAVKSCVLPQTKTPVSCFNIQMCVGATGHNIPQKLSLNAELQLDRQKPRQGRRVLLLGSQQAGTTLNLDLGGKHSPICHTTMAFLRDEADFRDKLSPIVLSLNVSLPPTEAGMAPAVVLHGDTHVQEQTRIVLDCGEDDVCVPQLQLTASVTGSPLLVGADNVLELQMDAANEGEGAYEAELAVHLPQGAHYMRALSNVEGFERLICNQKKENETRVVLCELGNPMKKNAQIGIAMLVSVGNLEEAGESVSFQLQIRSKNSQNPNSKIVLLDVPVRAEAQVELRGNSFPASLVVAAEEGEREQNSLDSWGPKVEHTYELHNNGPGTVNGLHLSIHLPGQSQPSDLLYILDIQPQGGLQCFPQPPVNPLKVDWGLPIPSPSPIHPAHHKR
Sequence of GPIIb/IIIa (P08514 891-1039 partner limits assumed): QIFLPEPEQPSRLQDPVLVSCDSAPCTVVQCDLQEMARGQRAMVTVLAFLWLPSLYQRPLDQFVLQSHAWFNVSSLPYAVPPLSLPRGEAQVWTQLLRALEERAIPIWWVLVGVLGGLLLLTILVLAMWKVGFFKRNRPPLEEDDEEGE
Sequence of GPIIb/IIIa (P05106 27-788): as the sequence (P05106 27-788) above
Procedure: as §1

pIC50 (Human αvβ3)	pIC50 (GPIIb/IIIa)	Compound
8.07	6.17	O=C(O)[C@H](Cc1nc2ccc(/C=C/CNC3=NCCN3)cc2c(=O)[nH]1)NS(=O)(=O)CCc1cccc2ccccc12 [Compound 5, 6-[(1E)-3-[(4,5-dihydro-1H-imidazol-2-yl)amino]-1-propenyl]-(αS)-3,4-dihydro-α-[[[2-(1-naphthalenyl)ethyl]sulfonyl]amino]-4-oxo-2-quinazolinepropanoic Acid]
8.21	6.19	Cc1c(C)c(C)c(S(=O)(=O)N[C@@H](Cc2nc3ccc(/C=C/CNc4ccccn4)cc3c(=O)[nH]2)C(=O)O)c(C)c1C [Compound 10, (αS)-3,4-dihydro-4-oxo-α-[[(2,3,4,5,6-pentamethylphenyl)sulfonyl]amino]-6-[(1E)-3-(2-pyridinylamino)-1-propenyl]-2-quinazolinepropanoic Acid]
5.27	5.89	Cc1c(C)c(C)c(S(=O)(=O)N[C@@H](Cc2nc3ccc(/C=C/CNC4=NCCCCC4)cc3c(=O)[nH]2)C(=O)O)c(C)c1C [Compound 74, (αS)-3,4-dihydro-4-oxo-α-[[(2,3,4,5,6-pentamethylphenyl)sulfonyl]amino]-6-[(1E)-3-[(3,4,5,6-tetrahydro-2H-azepin-7-yl)amino]-1-propenyl]-2-quinazolinepropanoic acid]
6.31	4.74	Cc1ccnc(NC/C=C/c2ccc3nc(C[C@H](NC(=O)OCc4ccccc4)C(=O)O)[nH]c(=O)c3c2)c1 [Compound 69, (αS)-3,4-dihydro-6-[(1E)-3-[(4-methyl-2-pyridinyl)amino]-1-propenyl]-4-oxo-α-[[(phenylmethoxy)carbonyl]amino]-2-quinazolinepropanoic acid]
6.80	5.39	Cc1nn(C)c(Cl)c1S(=O)(=O)N[C@@H](Cc1nc2ccc(/C=C/CNC(=O)NCc3ccccc3)cc2c(=O)[nH]1)C(=O)O [Compound 65, α-[[(5-chloro-1,3-dimethyl-1H-pyrazol-4-yl)sulfonyl]amino]-(αS)-3,4-dihydro-4-oxo-6-[(1E)-3-[[[(phenylmethyl)amino]carbonyl]amino]-1-propenyl]-2-quinazolinepropanoic acid]
< 6.52	5.66	O=C(O)[C@H](Cc1nc2ccc(/C=C/CNc3ccccn3)cc2c(=O)[nH]1)NS(=O)(=O)c1ccc(S(=O)(=O)c2ccccc2)s1 [Compound 28, (αS)-3,4-dihydro-4-oxo-α-[[[5-(phenylsulfonyl)-2-thienyl]sulfonyl]amino]-6-[(1E)-3-(2-pyridinylamino)-1-propenyl]-2-quinazolinepropanoic acid]
8.17	7.29	COc1ccc(S(=O)(=O)N[C@@H](Cc2nc3ccc(/C=C/CNC4=NCCN4)cc3c(=O)[nH]2)C(=O)O)cc1 [Compound 50, 6-[(1E)-3-[(4,5-dihydro-1H-imidazol-2-yl)amino]-1-propenyl]-(αS)-3,4-dihydro-α-[[(4-methoxyphenyl)sulfonyl]amino]-4-oxo-2-quinazolinepropanoic acid]
6.85	5.77	Cc1c(C)c(C)c(S(=O)(=O)N[C@@H](Cc2nc3ccc(/C=C/CNC(=O)Nc4ccccc4)cc3c(=O)[nH]2)C(=O)O)c(C)c1C [Compound 13, (αS)-3,4-dihydro-4-oxo-α-[[(2,3,4,5,6-pentamethylphenyl)sulfonyl]amino]-6-[(1E)-3-[[(phenylamino)carbonyl]amino]-1-propenyl]-2-quinazolinepropanoic Acid]
< 5.30	6.18	O=C(N[C@@H](Cc1nc2ccc(C#CCNC3=NCCN3)cc2c(=O)[nH]1)C(=O)O)OCc1ccccc1 [Compound 20, 6-[3-[(4,5-dihydro-1H-imidazol-2-yl)amino]-1-propynyl]-(αS)-3,4-dihydro-4-oxo-α-[[(phenylmethoxy)carbonyl]amino]-2-quinazolinepropanoic acid]

Continued, compound first:

Compound	pIC50 (Human αvβ3)	pIC50 (GPIIb/IIIa)
O=C(NC/C=C/c1ccc2nc(C[C@H](NS(=O)(=O)Cc3ccccc3)C(=O)O)[nH]c(=O)c2c1)NCc1ccccc1 [Compound 70, (αS)-3,4-dihydro-4-oxo-6-[(1E)-3-[[[(phenylmethyl)amino]carbonyl]amino]-1-propenyl]-α-[[(phenylmethyl)sulfonyl]amino]-2-quinazolinepropanoic acid]	6.26	5.49
CN(C)c1cccc2c(S(=O)(=O)N[C@@H](Cc3nc4ccc(/C=C/CNC5=NCCN5)cc4c(=O)[nH]3)C(=O)O)cccc12 [Compound 22, 6-[(1E)-3-[(4,5-dihydro-1H-imidazol-2-yl)amino]-1-propenyl]-α-[[[5-(dimethylamino)-1-naphthalenyl]sulfonyl]amino]-(αS)-3,4-dihydro-4-oxo-2-quinazolinepropanoic acid]	< 6.30	5.92
Cc1cccc(Cl)c1S(=O)(=O)N[C@@H](Cc1nc2ccc(/C=C/CNc3ccccn3)cc2c(=O)[nH]1)C(=O)O [Compound 29, α-[[(2-chloro-6-methylphenyl)sulfonyl]amino]-(αS)-3,4-dihydro-4-oxo-6-[(1E)-3-(2-pyridinylamino)-1-propenyl]-2-quinazolinepropanoic acid]	7.42	6.62
COc1ccc(S(=O)(=O)N[C@@H](Cc2nc3ccc(/C=C/CNC4=NCCCC4)cc3c(=O)[nH]2)C(=O)O)cc1OC [Compound 60, α-[[(3,4-dimethoxyphenyl)sulfonyl]amino]-(αS)-3,4-dihydro-4-oxo-6-[(1E)-3-[(3,4,5,6-tetrahydro-2-pyridinyl)amino]-1-propenyl]-2-quinazolinepropanoic acid]	7.24	6.21
O=C(O)[C@H](Cc1nc2ccc(/C=C/CNc3ccccn3)cc2c(=O)[nH]1)NS(=O)(=O)c1ccc(OC(F)(F)F)cc1 [Compound 35, (αS)-3,4-dihydro-4-oxo-6-[(1E)-3-(2-pyridinylamino)-1-propenyl]-α-[[[4-(trifluoromethoxy)phenyl]sulfonyl]amino]-2-quinazolinepropanoic acid]	7.23	5.32
COc1cccc([C@@H](CC(=O)O)c2nc3ccc(/C=C/CNc4ccccn4)cc3c(=O)[nH]2)c1 [Compound 17, (βR)-3,4-dihydro-β-(3-methoxyphenyl)-4-oxo-6-[(1E)-3-(2-pyridinylamino)-1-propenyl]-2-quinazolinepropanoic Acid]	< 4.30	4.74
COc1ccc(OC)c(S(=O)(=O)N[C@@H](Cc2nc3ccc(/C=C/CNc4ccccn4)cc3c(=O)[nH]2)C(=O)O)c1 [Compound 32, α-[[(2,5-dimethoxyphenyl)sulfonyl]amino]-(αS)-3,4-dihydro-4-oxo-6-[(1E)-3-(2-pyridinylamino)-1-propenyl]-2-quinazolinepropanoic acid]	7.68	5.41
O=C(N[C@@H](Cc1nc2ccc(/C=C/CNC3=NCCC3)cc2c(=O)[nH]1)C(=O)O)OCc1ccccc1 [Compound 67, 6-[(1E)-3-[(3,4-dihydro-2H-pyrrol-5-yl)amino]-1-propenyl]-(αS)-3,4-dihydro-4-oxo-α-[[(phenylmethoxy)carbonyl]amino]-2-quinazolinepropanoic acid]	6.38	6.24
COc1cc(C)c(S(=O)(=O)N[C@@H](Cc2nc3ccc(/C=C/CNC(=O)NCc4ccccc4)cc3c(=O)[nH]2)C(=O)O)c(C)c1C [Compound 56, (αS)-3,4-dihydro-α-[[(4-methoxy-2,3,6-trimethylphenyl)sulfonyl]amino]-4-oxo-6-[(1E)-3-[[[(phenylmethyl)amino]carbonyl]amino]-1-propenyl]-2-quinazolinepropanoic acid]	7.49	5.41
COc1ccc(S(=O)(=O)N[C@@H](Cc2nc3ccc(/C=C/CNc4cc(C)ccn4)cc3c(=O)[nH]2)C(=O)O)cc1OC [Compound 46, α-[[(3,4-dimethoxyphenyl)sulfonyl]amino]-(αS)-3,4-dihydro-6-[(1E)-3-[(4-methyl-2-pyridinyl)amino]-1-propenyl]-4-oxo-2-quinazolinepropanoic acid]	8.24	6.13
